Test results from PubChem BioAssay (NCI).
“And” between values parts separate entries of the source, which are not always exact repeats. Equal values may be shown once.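 These data come from cells grown in 96-well plates and exposed to compound for 48 hours at five concentrations. GI50: concentration for 50% inhibition of growth. TGI: concentration producing complete growth inhibition.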

Tests used:
Experiment in all cases: NCI tumour cell line growth inhibition, 48 h
NCI-H226 lung = tested on: NCI-H226 lung
A549 NSCLC = tested on: A549 NSCLC
MALME-3M melanoma = tested on: MALME-3M melanoma
OVCAR-3 ovarian = tested on: OVCAR-3 ovarian
SR leukemia = tested on: SR leukemia
HT29 colon = tested on: HT29 colon
IGROV1 ovarian = tested on: IGROV1 ovarian
UACC-62 melanoma = tested on: UACC-62 melanoma
OVCAR-4 ovarian = tested on: OVCAR-4 ovarian
HCT-116 colon = tested on: HCT-116 colon

SMILES	GI50 (NCI-H226 lung)	TGI (NCI-H226 lung)	GI50 (A549 NSCLC)	TGI (A549 NSCLC)	GI50 (MALME-3M melanoma)	TGI (MALME-3M melanoma)	GI50 (OVCAR-3 ovarian)	TGI (OVCAR-3 ovarian)	GI50 (SR leukemia)	TGI (SR leukemia)	GI50 (HT29 colon)	TGI (HT29 colon)	GI50 (IGROV1 ovarian)	TGI (IGROV1 ovarian)	GI50 (UACC-62 melanoma)	TGI (UACC-62 melanoma)	GI50 (OVCAR-4 ovarian)	TGI (OVCAR-4 ovarian)	GI50 (HCT-116 colon)	TGI (HCT-116 colon)
O=[N+]([O-])c1cccc([As]=[As]c2cccc([N+](=O)[O-])c2)c1 (centres undefined)	0.143 µM	0.287 µM	0.178 µM	0.351 µM	0.0562 µM	0.155 µM	0.0499 µM	0.16 µM	0.0275 µM	0.1 µM	0.159 µM	0.329 µM	0.0587 µM	0.211 µM	0.0885 µM	0.212 µM	0.0921 µM	0.308 µM	0.0627 µM	0.181 µM
C[Si](C)(C)c1ccc(-c2sc(-c3ccc([Si](C)(C)C)s3)c3c2C[Si]2(C3)Cc3c(-c4ccc([Si](C)(C)C)s4)sc(-c4ccc([Si](C)(C)C)s4)c3C2)s1	–	> 100 µM	–	> 100 µM	–	> 100 µM	–	> 100 µM	–	> 100 µM	–	> 100 µM	–	> 100 µM	–	> 100 µM	–	> 100 µM	–	> 100 µM
COc1cccc(-n2ncc3c(N/N=C/c4ccncc4)ncnc32)c1	> 6.17 µM	> 25 µM	> 14.5 µM	> 25 µM	> 25 µM	> 25 µM	1.9 µM	> 25 µM	2.12 µM	> 25 µM	2.24 µM	> 25 µM	7.95 µM	> 25 µM	4.28 µM	> 25 µM	> 25 µM	> 25 µM	2.8 µM	> 25 µM
Nc1nc(Nc2ccc(C3CCC(N4CCOCC4)CC3)cc2)nn1-c1ccccn1 (centres undefined)	2.4 µM	> 58.4 µM	4.08 µM	> 100 µM	5.58 µM	> 46 µM	9.86 µM	44.6 µM	0.366 µM	3.29 µM	3.11 µM	> 100 µM	3.57 µM	> 100 µM	7.27 µM	> 88.3 µM	12.4 µM	> 84.9 µM	2.92 µM	20.7 µM
NC(=S)N/N=C/c1ncccc1N	1.01 µM	8.24 µM and > 10 µM	3.16 µM	> 100 µM	3 µM	> 90.5 µM	2.54 µM	> 56.6 µM	–	18.9 µM and > 10 µM	2.19 µM	> 63.4 µM	0.807 µM	> 100 µM	0.338 µM	7.67 µM and > 10 µM	3.57 µM	> 50 µM	1.16 µM	> 33.7 µM
Cc1[nH]c2ccccc2c1C1Cc2ccccc2N1C(=O)/C=C/C(=O)O (centres undefined)	–	> 100 µM	–	> 100 µM	–	> 100 µM	–	> 100 µM	–	> 100 µM	–	> 100 µM	–	> 100 µM	–	> 100 µM	–	> 100 µM	–	> 100 µM
Cc1ccc(C)c(NC(=O)CC/C(=N\NC(=O)c2c(O)ccc3ccccc23)C(C)C(=O)c2ccc(O)cc2)c1 (centres undefined)	–	98.8 µM	–	> 100 µM	–	90.2 µM	–	89.2 µM	–	90.3 µM	–	> 100 µM	–	> 100 µM	–	34.3 µM	–	> 100 µM	–	> 100 µM
CC#CC(=O)SCCNC(=O)CC	–	> 10 µM	–	> 10 µM	–	> 10 µM	–	> 10 µM	–	> 7.91 µM	–	> 10 µM	–	> 10 µM	–	> 10 µM	–	> 10 µM	–	> 10 µM
